Three compounds from publication PMC9603770, “Broad-Spectrum Inhibitors against Class A, B, and C Type β-Lactamases to Block the Hydrolysis against Antibiotics: Kinetics and Structural Characterization” (Microbiology Spectrum, 2022) can be followed below.

The target in assay [1] is T1, Amp-C (Escherichia coli, UniProt P00811).
T1 construct: made in house; host or cells: E. coli (DH5 and BL21(DE3) named; pET-28a)
The assay is described as follows: Steady-state kinetics of antibiotic hydrolysis with inhibitor. In kind it is biochemical. The following applies: inhibitor concentration as per IC50. The protocol:
The enzyme kinetics parameters (Km, and kcat) for all six proteins/enzymes in combination with different antibiotics (cefotaxime, imipenem, and meropenem), were calculated. The concentration of inhibitors, D63, D2148, and D2573, was as per the IC50 value (Fig. 5); the kinetic parameters are listed in Table 8.
The steady-state kinetics of all six proteins were determined using the antibiotics:imipenem (Δε295 = −11,500 M^−1 cm^−1), meropenem (Δε297 = −10,940 M^−1 cm^−1), and cefotaxime (Δε264 = −27,250 M^−1 cm^−1). In this study, the D63, D2148, and D2573 inhibitors were tested. Hydrolysis of β-lactam antibiotics was detected by monitoring the variation in absorbance due to cleavage of the β-lactam ring in 50 mM, pH 7.0, phosphate buffer ([40], [41]). For hydrolysis of substrate (cefotaxime, imipenem, and meropenem) kinetics parameters, Km and kcat were calculated by using Michaelis Menten equations (equations 2 and 3). (2) V =Vmax [S]/Km + [S] (3) kcat = Vmax/E where E and S are the enzyme and substrate concentration, Km is the Michaelis-Mentent constant, kcat is the turnover number, and V and Vmax are the initial and maximum velocity of the hydrolysis, respectively.

Assay [2] has as its target T2, SHV-1 (Klebsiella pneumoniae, UniProt P0AD64).
T2 construct: made in house; host or cells: E. coli (DH5 and BL21(DE3) named; pET-28a)
Description: Fluorescence quenching. In kind it is binding. The settings on record: 298 K. The protocol: (§1) Fluorescence quenching can be either dynamic or static in nature. The fluorescence intensity was calculated to understand the mechanism of protein quenching from all three classes of β-lactamase with D63, D2148, and D2573. The KSV (Stern–Volmer quenching constant; [Q] is the concentration of inhibitor) of all protein-inhibitor complexes was calculated from the slope of plot Fo/F (fluorescence intensities in the absence and presence of quencher) versus [Q], whereas number of binding sites (n) and Kb values for all combinations of proteins and inhibitors were determined by the slope and intercept of plot log (Fo/F – 1) versus log[Q] (Table 9).
(§2) A Shimadzu RF-5301PC spectrofluorometer (Shimadzu Corporation, Kyoto, Japan) was used to measure the fluorescence spectra. Quenching was observed by measuring intrinsic fluorescence at 295 nm between 300 and 400 nm. The emission and excitation slits were both adjusted to 5 nm. Then, 2 μM each D2573, D2148, and D63 were added to a 3-mL sample containing 2 μM protein ([…]). All the fluorescence intensities were corrected for the inner filter effect. The determination of the number of binding sites (n) and binding constant (Kb) at 298 K temperature for all the protein-inhibitor combinations from the Stern-Volmer equation and modified Stern-Volmer equation (equations 4 and 5). (4) (F0)/F = 1 + Ksv[Q] (5) Log (F0 − F)/F= logKb + n log[Q]
(§3) Fo and F are the fluorescence intensities in the absence and presence of quencher (D63, D2148, D2573).

In assay [3] the target is T3, CTX-M-15 (Escherichia coli, UniProt Q9EXV5).
T3 construct: made in house; host or cells: E. coli (DH5 and BL21(DE3) named)
Description: Fluorescence quenching. It is filed as binding. The settings on record: 298 K. On the procedure:
as §1, §2, §3

Assay [4] addresses T4, KPC-2 (Klebsiella pneumoniae, UniProt Q9F663).
T4 construct: made in house; host or cells: E. coli (DH5 and BL21(DE3) named; pET-28a)
Description: Fluorescence quenching. The following applies: 298 K. It is filed as binding. On the procedure:
as §1, §2, §3

Assay [5] has as its target T5, NDM-1 (Klebsiella pneumoniae, UniProt C7C422).
T5 construct: made in house; host or cells: E. coli (DH5 and BL21(DE3) named)
Description: Fluorescence quenching. It is filed as binding. The settings on record: 298 K. On the procedure:
as §1, §2, §3

Assay [6] has as its target T6, TEM-1 (Escherichia coli, UniProt P62593).
T6 construct: made in house; host or cells: E. coli (DH5 and BL21(DE3) named; pET-28a)
The assay is described as follows: Fluorescence quenching. The following applies: 298 K. It is filed as binding. The protocol:
as §1, §2, §3

The subject of assay [7] is β-lactamase-producing clones. The assay is described as follows: MIC fold reduction of meropenem in combination with inhibitor (discussion summary). In kind it is cell-based, Escherichia coli. An excerpt: The combination of D2573 with cephalosporins (cefotaxime plus D2573 and cefoxitin plus D2573) or the combination of D2148 with cephalosporins (cefotaxime plus D2148 and cefoxitin plus D2148) or the combination of D63 with cephalosporins (cefotaxime plus D63 and cefoxitin plus D63) had […] MICs than the control. […] The MIC and MBC data are in harmony with in silico data which concluded that three potential inhibitors, D2573, D2148, and D63, are potential candidates against broad-spectrum β-lactamase-producing bacterial strains.
The MICs of various antibiotics in combination with selected inhibitors were determined on DH5α cells and clinical strains (AK-10, AK-12,AK-18, NP-6, AK-67, AK-66) using the microdilution method; Clinical and Laboratory Standards Institute (CLSI) guidelines were used to interpret the results ([37], [38]). In a series of 2-fold dilutions, E. coli cells were given escalating doses of antibiotics from 0 to 512 μg/mL.

Assay [8] concerns the target T2, SHV-1. Description: IC50, nitrocefin hydrolysis. In kind it is biochemical. On the procedure:
(§4) The IC50 values of all the proteins were calculated to determine the efficacy of each inhibitor. The IC50 values were calculated for the proteins NDM-1, Amp-C, KPC-2, CTX-M-15, SHV-1, and TEM-1 with each of its inhibitors (D63, D2148, and D2573) to compare their efficacies at a fixed concentration 100 μΜ of nitrocefin (Table 7).
(§5) Overexpression of proteins was done by adding 0.5 mM IPTG (isopropyl-β-D-thiogalactopyranoside), and purification of the NDM-1, SHV-1, TEM-1, CTX-M-15, KPC-2, and Amp-C recombinant protein was performed with an Ni-NTA affinity column. […] The final concentration of the protein was estimated with a NanoDrop instrument.
(§6) The direct competition between the β-lactamase substrate, nitrocefin, and their inhibitors were used to determine the IC50 and Ki values. Using a Shimadzu UV-VIS spectrophotometer UV-1800, variable quantities of inhibitor D63, D2148, and D2573 (0 to 3 μM), fixed concentrations of purified proteins (1 nM), and nitrocefin substrate (100 μM) were used in a reaction at 486 nm. […] The IC50 value is the inhibitor concentration that inhibits enzyme hydrolytic activity by 50% (50% inhibitory concentration).

For assay [9], the target named is T1, Amp-C. The assay is described as follows: IC50, nitrocefin hydrolysis. In kind it is biochemical. On the procedure: as §4, §5, §6
Assay [10] has as its target T3, CTX-M-15. Description: IC50, nitrocefin hydrolysis. In kind it is biochemical. The following applies: 100 μΜ nitrocefin. The protocol:
as §4, §5, §6

In assay [11] the target is T4, KPC-2. Description: IC50, nitrocefin hydrolysis. In kind it is biochemical. The settings on record: 100 μΜ nitrocefin. The protocol:
as §4, §5, §6

Assay [12] concerns the target T5, NDM-1. The assay is described as follows: IC50, nitrocefin hydrolysis. In kind it is biochemical. The settings on record: 100 μΜ nitrocefin. The protocol:
as §4, §5, §6

Assay [13] concerns the target T6, TEM-1. The assay is described as follows: IC50, nitrocefin hydrolysis. It is filed as biochemical. The settings on record: 100 μΜ nitrocefin. On the procedure:
as §4, §5, §6

The structures appear in SMILES notation.

One may read the IC50 as the midpoint of a concentration-inhibition curve.

T1 sequence (P00811 20-377): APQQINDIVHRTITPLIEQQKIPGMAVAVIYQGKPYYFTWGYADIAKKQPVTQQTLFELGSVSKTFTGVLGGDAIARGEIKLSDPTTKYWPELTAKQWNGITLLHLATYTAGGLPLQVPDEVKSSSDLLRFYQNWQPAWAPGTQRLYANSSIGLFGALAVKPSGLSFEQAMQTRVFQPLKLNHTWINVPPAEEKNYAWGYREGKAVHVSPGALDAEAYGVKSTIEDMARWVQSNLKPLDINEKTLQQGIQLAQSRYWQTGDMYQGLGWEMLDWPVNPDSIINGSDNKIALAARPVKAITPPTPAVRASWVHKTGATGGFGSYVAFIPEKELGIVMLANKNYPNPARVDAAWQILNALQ
T3 sequence (Q9EXV5 29-291, species assumed): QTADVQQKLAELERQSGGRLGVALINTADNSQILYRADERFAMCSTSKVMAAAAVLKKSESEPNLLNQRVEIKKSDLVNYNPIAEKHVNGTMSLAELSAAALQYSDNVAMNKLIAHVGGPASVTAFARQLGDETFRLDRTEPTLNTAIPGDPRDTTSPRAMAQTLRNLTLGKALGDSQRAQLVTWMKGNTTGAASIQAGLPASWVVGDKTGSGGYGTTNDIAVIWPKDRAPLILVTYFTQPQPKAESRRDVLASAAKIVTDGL
T6 sequence (P62593 24-286 limits assumed): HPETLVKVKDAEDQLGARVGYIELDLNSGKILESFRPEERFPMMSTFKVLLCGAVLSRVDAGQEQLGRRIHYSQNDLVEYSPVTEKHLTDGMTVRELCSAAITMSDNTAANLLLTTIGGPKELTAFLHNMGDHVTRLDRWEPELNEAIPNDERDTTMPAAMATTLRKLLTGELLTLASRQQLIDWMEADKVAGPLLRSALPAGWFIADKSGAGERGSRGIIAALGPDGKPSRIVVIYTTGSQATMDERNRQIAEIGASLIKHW
T4 sequence (Q9F663 25-293, looked up, species assumed): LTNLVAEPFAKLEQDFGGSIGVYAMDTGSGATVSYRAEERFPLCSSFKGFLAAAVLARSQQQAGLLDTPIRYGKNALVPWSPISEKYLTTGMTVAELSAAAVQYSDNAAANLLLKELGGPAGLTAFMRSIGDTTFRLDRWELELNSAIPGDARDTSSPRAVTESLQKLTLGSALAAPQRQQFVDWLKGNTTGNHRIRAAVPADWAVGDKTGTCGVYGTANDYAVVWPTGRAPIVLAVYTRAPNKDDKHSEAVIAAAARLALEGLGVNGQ
T5 sequence (C7C422 29-270, looked up, species assumed): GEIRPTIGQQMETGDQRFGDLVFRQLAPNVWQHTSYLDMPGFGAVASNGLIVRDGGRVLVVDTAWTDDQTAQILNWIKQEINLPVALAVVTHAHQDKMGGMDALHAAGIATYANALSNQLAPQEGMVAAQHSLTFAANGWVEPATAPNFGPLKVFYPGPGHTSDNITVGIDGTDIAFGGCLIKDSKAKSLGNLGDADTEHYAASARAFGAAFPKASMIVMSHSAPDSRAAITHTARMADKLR
T2 sequence (P0AD64 22-286): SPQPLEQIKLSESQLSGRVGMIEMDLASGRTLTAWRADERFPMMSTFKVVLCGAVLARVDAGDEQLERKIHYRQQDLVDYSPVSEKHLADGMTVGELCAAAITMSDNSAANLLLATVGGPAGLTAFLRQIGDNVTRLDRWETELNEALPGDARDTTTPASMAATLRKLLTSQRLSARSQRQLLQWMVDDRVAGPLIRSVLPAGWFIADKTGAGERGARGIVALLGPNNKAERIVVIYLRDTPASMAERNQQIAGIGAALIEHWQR

`O=C(CN1C(=O)c2ccccc2S1(=O)=O)c1ccc(O)c(O)c1` [D63, 2-[2-(3,4-dihydroxyphenyl)-2-oxoethyl]-1H-1,2-benzisothiazole-1,1,3(2H)-trione]: the figures for the “Km or Ki” value in assay [1] (cefotaxime), in [1] (imipenem) and in assay [1] (meropenem) were 1,522 μΜ, 499.22 μΜ and 553.8 μΜ, respectively. For the same compound, the values for the kcat in assay [1] (cefotaxime), in [1] (imipenem) and in assay [1] (meropenem) were 1.537 S^−1, 1.158 S^−1 and 1.093 S^−1, respectively. The “n (number of binding sites)” value in [2] was 0.4791; in assay [3], 1.9313; in assay [4], 0.33; in [5], 1.6673; in assay [6], 0.4298. In addition, the “Reduction of MIC of meropenem in combination with inhibitor” value (shortened to “Reduction of MIC … with inhibitor”) in [7] (class A β-lactamases) stood at 2 fold; in assay [7] (class B and C β-lactamases), 4 fold. Moreover, the IC50 stood at 0.649 nM in assay [8]; 0.609 nM in assay [9]; 0.779 nM in [10]; 0.695 nM in assay [11]; 0.733 nM in [12]; 0.726 nM in assay [13].

On to `O=C(c1ccccc1)C1CCN(C(=O)CN2C(=O)c3ccccc3C2=O)CC1` [D2148, 2-[2-(4-benzoylpiperidino) -2-oxoethyl]-1H-isoindole-1,3(2H)-dione], for which the “Km or Ki” value is on record as 796.6 μΜ in assay [1] (cefotaxime), 1,136 μΜ in [1] (imipenem) and 794 μΜ in assay [1] (meropenem). Besides, the kcat in assay [1] (cefotaxime) came to 3.401 S^−1; in assay [1] (imipenem) it was 2.631 S^−1; in assay [1] (meropenem), 2.637 S^−1. For the same compound, the “n (number of binding sites)” value in assay [2] was 0.2952; in assay [3], 1.163; in assay [4], 1.148; in assay [5], 2.457; in [6], 0.2489. Besides, the “Reduction of MIC … with inhibitor” value in assay [7] (class A β-lactamases) was 2 fold; in [7] (class B and C β-lactamases), 4 fold. For the same compound, the IC50 was 0.587 nM in assay [8]; 0.714 nM in assay [9]; 0.638 nM in [10]; 0.744 nM in assay [11]; 0.632 nM in [12]; 0.449 nM in assay [13].

Consider `O=C(O)c1ccccc1C(=O)N1CCN(c2nc(-c3ccccc3)ns2)CC1` [D2573, 2-{[4-(3-phenyl-1,2,4-thiadiazol-5-yl)piperazino]carbonyl}benzoic acid], for which the results for the “Km or Ki” value in assay [1] (cefotaxime), in assay [1] (imipenem) and in assay [1] (meropenem) were 1,522 μΜ, 499 μΜ and 553 μΜ, respectively. The values for the kcat in assay [1] (cefotaxime), in assay [1] (imipenem) and in assay [1] (meropenem) were 1.5 S^−1, 1.158 S^−1 and 1.09 S^−1, respectively. In addition, the “n (number of binding sites)” value in assay [2] stood at 0.7621; in [3], 0.9674; in assay [4], 1.1315; in [5], 0.1842; in assay [6], 0.750. In addition, the “Reduction of MIC … with inhibitor” value in assay [7] (all selected β-lactamase enzymes) came to 2 fold. Besides, the concentration for half-maximal inhibition (IC50) was found to be 0.655 nM in assay [8]; 0.655 nM in assay [9]; 0.731 nM in assay [10]; 0.667 nM in assay [11]; 0.624 nM in [12]; 0.634 nM in [13].
